Assay results published in paper PMC9395446, “First-in-human phase 1/1b study to evaluate sitravatinib in patients with advanced solid tumors” (Investigational New Drugs, 2022).
Like-named read-outs stand apart in the source and are kept apart here.

Assay: Plasma pharmacokinetics after single and multiple oral doses (noncompartmental analysis)
Format: in vivo, human
Details: for Cmax / Tmax / AUC: human, plasma, oral; for AUC: read-out: AUCτ,ss, geometric mean (CV%)
Method: In the PK lead-in period, patients received a single oral dose of sitravatinib (10–200 mg) under fasted conditions with at least 200 mL of water, followed by PK sample collection for 3–7 days, depending on emerging PK information. After the PK lead-in period, patients commenced the daily regimen planned for their cohort. Blood samples were collected pre-dose and 0.5 (for 10 mg only), 1, 2, 4, 6, 8, 12, 24, 36, 48, 72 and 168 (for 20–200 mg dose levels) h post-dose from patients following a single oral dose, and at pre-dose, 0.5, 1, 2, 4, 6, 8, 12 and 24 h post-dose following multiple oral doses for the 10–200 mg levels.
PK samples were collected after a single dose during the PK lead-in period and following multiple oral doses during the study. Plasma PK samples were assayed for quantification of sitravatinib. The lower limit of quantification was 0.05 ng/mL. PK parameters were determined using a noncompartmental analysis approach including maximum (peak) concentration (Cmax), time to reach Cmax following drug administration (tmax), area under the plasma concentration–time curves (AUCs), apparent total clearance of the drug from plasma after oral administration, apparent volume of distribution during the terminal phase after administration and terminal elimination half-life (t1/2). PD effects were examined by analyzing VEGF-A ligand and soluble (s)-VEGF-R2 levels in patients’ plasma samples collected before and after sitravatinib administration.

[1] = 200 mg QD, Cycle 1 Day 15, single patient result

COCCNCc1ccc(-c2cc3nccc(Oc4ccc(NC(=O)C5(C(=O)Nc6ccc(F)cc6)CC5)cc4F)c3s2)nc1 [sitravatinib, Sitravatinib]
CL/F at steady state, geometric mean (CV%) (10 mg QD, Cycle 1 Day 8): 42.5 (42.8); 2 L/h
Cav,ss, geometric mean (CV%) (10 mg QD, Cycle 1 Day 8): 9.81 (42.8); 2 ng/mL
CL/F at steady state, geometric mean (CV%) (20 mg QD, Cycle 1 Day 15): 41.2 (6.4); 3 L/h
Cav,ss, geometric mean (CV%) (20 mg QD, Cycle 1 Day 15): 20.2 (6.4); 3 ng/mL
CL/F at steady state, geometric mean (CV%) (40 mg QD, Cycle 1 Day 15): 64.6 (156.5); 5 L/h
Cav,ss, geometric mean (CV%) (40 mg QD, Cycle 1 Day 15): 25.8 (156.5); 5 ng/mL
CL/F at steady state, geometric mean (CV%) (80 mg QD, Cycle 1 Day 15): 65.7 (104.9); 5 L/h
Cav,ss, geometric mean (CV%) (80 mg QD, Cycle 1 Day 15): 50.7 (104.9); 5 ng/mL
CL/F at steady state, geometric mean (CV%) (110 mg QD, Cycle 1 Day 15): 48.9 (44.5); 3 L/h
Cav,ss, geometric mean (CV%) (110 mg QD, Cycle 1 Day 15): 93.7 (44.5); 3 ng/mL
Interpatient variability for Cmax and AUCτ,ss (120 mg QD): ~ 60%
CL/F at steady state, geometric mean (CV%) (120 mg QD, Cycle 1 Day 15): 75.0 (59.1); 3 L/h
Cav,ss, geometric mean (CV%) (120 mg QD, Cycle 1 Day 15): 66.7 (59.1); 3 ng/mL
CL/F at steady state, geometric mean (CV%) (150 mg QD, Cycle 1 Day 15): 68.8 (46.5); 18 L/h
Cav,ss, geometric mean (CV%) (150 mg QD, Cycle 1 Day 15): 90.9 (46.5); 18 ng/mL
CL/F at steady state [1]: 48.4 (NA); 1 L/h
Cav,ss [1]: 172 (NA); 1 ng/mL
Time by which steady-state appeared to be reached (QD dosing): cycle 1 day 8
Cmax (10 mg, 10 mg QD, Cycle 1 Day 8, read-out: Cmax,ss, geometric mean (CV%)): 11.4 ng/mL
Tmax (10 mg, 10 mg QD, Cycle 1 Day 8, read-out: tmax,ss, median (min–max)): 2 h
Cmax (10 mg, single dose 10 mg, read-out: Cmax, geometric mean (CV%)): 3.54 ng/mL
Tmax (10 mg, single dose 10 mg, read-out: tmax, median (min–max)): 5.03 h
Cmax (20 mg, 20 mg QD, Cycle 1 Day 15, read-out: Cmax,ss, geometric mean (CV%)): 23.7 ng/mL
Tmax (20 mg, 20 mg QD, Cycle 1 Day 15, read-out: tmax,ss, median (min–max)): 8.13 h
Cmax (20 mg, single dose 20 mg, read-out: Cmax, geometric mean (CV%)): 5.71 ng/mL
Tmax (20 mg, single dose 20 mg, read-out: tmax, median (min–max)): 8.04 h
Cmax (40 mg, 40 mg QD, Cycle 1 Day 15, read-out: Cmax,ss, geometric mean (CV%)): 32.5 ng/mL
Tmax (40 mg, 40 mg QD, Cycle 1 Day 15, read-out: tmax,ss, median (min–max)): 4 h
Cmax (40 mg, single dose 40 mg, read-out: Cmax, geometric mean (CV%)): 11.8 ng/mL
Tmax (40 mg, single dose 40 mg, read-out: tmax, median (min–max)): 4.05 h
Cmax (80 mg, 80 mg QD, Cycle 1 Day 15, read-out: Cmax,ss, geometric mean (CV%)): 69.2 ng/mL
Tmax (80 mg, 80 mg QD, Cycle 1 Day 15, read-out: tmax,ss, median (min–max)): 4.01 h
Cmax (80 mg, single dose 80 mg, read-out: Cmax, geometric mean (CV%)): 31.7 ng/mL
Tmax (80 mg, single dose 80 mg, read-out: tmax, median (min–max)): 6 h
Cmax (110 mg, 110 mg QD, Cycle 1 Day 15, read-out: Cmax,ss, geometric mean (CV%)): 119 ng/mL
Tmax (110 mg, 110 mg QD, Cycle 1 Day 15, read-out: tmax,ss, median (min–max)): 2 h
Cmax (110 mg, single dose 110 mg, read-out: Cmax, geometric mean (CV%)): 49.1 ng/mL
Tmax (110 mg, single dose 110 mg, read-out: tmax, median (min–max)): 3.02 h
Cmax (120 mg, 120 mg QD, Cycle 1 Day 15, read-out: Cmax,ss, geometric mean (CV%)): 80.4 ng/mL
Tmax (120 mg, 120 mg QD, Cycle 1 Day 15, read-out: tmax,ss, median (min–max)): 4 h
Cmax (120 mg, single dose 120 mg, read-out: Cmax, geometric mean (CV%)): 23.8 ng/mL
Tmax (120 mg, single dose 120 mg, read-out: tmax, median (min–max)): 8.87 h
Cmax (150 mg, 150 mg QD, Cycle 1 Day 15, read-out: Cmax,ss, geometric mean (CV%)): 114 ng/mL
Tmax (150 mg, 150 mg QD, Cycle 1 Day 15, read-out: tmax,ss, median (min–max)): 7.83 h
Cmax (150 mg, single dose 150 mg, read-out: Cmax, geometric mean (CV%)): 69.3 ng/mL
Tmax (150 mg, single dose 150 mg, read-out: tmax, median (min–max)): 6 h
Cmax (200 mg, 200 mg QD, Cycle 1 Day 15, single patient result, read-out: Cmax,ss): 221 ng/mL
Tmax (200 mg, 200 mg QD, Cycle 1 Day 15, single patient result, read-out: tmax,ss, median (min–max)): 10 h
Cmax (200 mg, single dose 200 mg, read-out: Cmax, geometric mean (CV%)): 85 ng/mL
Tmax (200 mg, single dose 200 mg, read-out: tmax, median (min–max)): 5.94 h
AUC (10 mg QD, Cycle 1 Day 8): 235 ng·h/mL
AUC (20 mg QD, Cycle 1 Day 15): 486 ng·h/mL
AUC (40 mg QD, Cycle 1 Day 15): 619 ng·h/mL
AUC (80 mg QD, Cycle 1 Day 15): 1220 ng·h/mL
